According to ChEMBL document CHEMBL5120970, “Cryptic Epoxytiglianes from the Kernels of the Blushwood Tree (Fontainea picrosperma)” (J Nat Prod, 2022):

Experiments:
K562 = assay: Cytotoxicity against PKC sensitive human K562 cells assessed as inhibition of cell growth measured after 7 days by Cell Titer Aqueous96 one solution reagent assay; format: functional, cell-based; settings: K562, 168 h
Neutrophil = assay: Induction of ROS production in human polymorphonuclear neutrophils incubated for 10 mins by DHE staining based fluorescence assay; format: functional, cell-based

EC50 (Neutrophil) [nM] | Structure (SMILES) | IC50 (K562) [nM]
125 | C/C=C(\C)C(=O)O[C@@H]1[C@@H](C)[C@@]2(O)[C@H]([C@@H]3C(C)(C)[C@]13OC(=O)[C@@H](C)CC)[C@@H]1O[C@]1(CO)[C@@H](O)[C@]1(O)C(=O)C(C)=C[C@H]12 [TIGILANOL TIGLATE] | 11.9
> 3630 | C/C=C(\C)C(=O)O[C@@H]1[C@@H](C)[C@@]2(O)[C@H]([C@@H]3C(C)(C)[C@]13OC(=O)[C@@H](C)CC)[C@@H]1O[C@]1(COC(=O)CCCCCCC/C=C\C/C=C\CCCCC)[C@@H](O)[C@]1(O)C(=O)C(C)=C[C@H]12 | 124
